Measurements taken from patent US20230002361A1, “2H-INDAZOLE DERIVATIVES AND THEIR USE IN THE TREATMENT OF DISEASE” (BIOGEN MA INC., priority 2019, published 2023).
Counter-ions that a name gives are not always drawn.

Experiments:
MDR1 (P-gp) = target: T1, MDR1 (P-gp) (Homo sapiens, UniProt P08183); assay: MDR1-MDCK assay (efflux ratio); type: in vitro ADME; conditions: human, MDCK-MDR1, 1 μM compound, 120 minutes incubation; read-out: MDR1-MDCK Efflux Ratio; (B-A/A-B)
T1 construct: host or cells: MDCK cells
Procedure: • The assay makes use of human MDR1 transfected MDCK cells (NIH cell line in-licensed from Absorption Systems) • The compounds are tested at 1 μM concentration prepared in transport buffer (Hank's balanced salt solution with HEPES) • MDR1-MDCK cell are cultured for 7 days in 96 well transwell insert plates (Corning). Insert plates are washed before the assay and TEER (Trans epithelial electric resistance) is measured. • These plates are loaded with test compound solution 85 μL for A-B transport and 260 μL for B-A transport in the respective donor compartment.
Mass balance=100×((Vr×Cr^final)+(Vd×Cd^final))/(Vd×CE) • Where: • dCr/dt is the cumulative concentration in the receiver compartment versus time in μM s^−1 • Vr is the volume of the receiver compartment in cm^3 • Vd is the volume of the donor compartment in cm^3 • A is the area of the insert (0.143 cm^2 for 96-well insert) • CE is the estimated experimental concentration (Time=0) of the dosing solution • Cr^final is the concentration of the receiver at the end of the incubation period • Cd^final is the concentration of the donor at the end of the incubation period.

IRAK4 = target: T2, IRAK4 (Homo sapiens, UniProt Q9NWZ3); assay: IRAK4 MSD Biochemical Assay (1 mM ATP, 2 h); conditions: room temperature, read-out: IRAK4 MSD Biochemical Assay (1 mM ATP, 2 h) IC50
T2 construct: with 0.1 nM IRAK4, 1.6 μM of biotinylated peptide substrate and 10 μM ATP
T2 sequence (Q9NWZ3 1-460): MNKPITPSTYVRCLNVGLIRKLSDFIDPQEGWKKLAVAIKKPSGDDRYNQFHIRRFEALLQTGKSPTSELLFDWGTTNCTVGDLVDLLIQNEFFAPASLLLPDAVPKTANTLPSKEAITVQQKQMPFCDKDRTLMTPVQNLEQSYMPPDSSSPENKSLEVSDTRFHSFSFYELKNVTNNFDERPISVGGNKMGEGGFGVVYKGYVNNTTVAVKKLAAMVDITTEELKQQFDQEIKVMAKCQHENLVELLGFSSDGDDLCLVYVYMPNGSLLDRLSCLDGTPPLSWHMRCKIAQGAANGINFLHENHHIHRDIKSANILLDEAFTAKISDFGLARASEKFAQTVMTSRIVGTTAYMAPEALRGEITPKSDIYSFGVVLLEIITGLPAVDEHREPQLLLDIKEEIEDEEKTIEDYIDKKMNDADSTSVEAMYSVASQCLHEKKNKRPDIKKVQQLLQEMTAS
Procedure: The 2-hour 10 μM ATP Biochemical Assay employs a MesoScale Detection (MSD) format.
The activity is quenched with 11 μl of 70 mM EDTA, pH 8.
To detect the phosphorylated biotinylated peptide substrate, 30 μl of the quenched reaction mixture is added to equivalent wells of a 384 well streptavidin coated MesoScale plate (Meso Scale Discovery #L21SA-1). After a 1 hour incubation of the plate for 1 hour at room temperature with gentle mixing, the plate wells are washed 3 times with 50 mM Tris, pH 7.5, 150 mM NaCl, 0.02% Tween-20.
A 25 μl volume of 1:500 anti-P-Threonine Rabbit polyclonal Antibody plus 1:500 Goat-anti-Rabbit Sulfo Tag Antibody (Meso Scale Discovery R32AB-1) in 50 mM Tris, pH 7.5, 150 mM NaCl, 0.02% Tween-20 plus 2% BSA is then added to each well. After a 1-hour incubation of the plate for 1 hour at room temperature with gentle mixing, the plate wells are washed, 3 times with 50 mM Tris, pH 7.5, 150 mM NaCl, 0.02% Tween-20. A 40 μl volume of 2×MSD Read Buffer (Meso Scale Discovery R92TC-1) is added to each well, and the plate is read immediately in an MSD Plate Reader (Meso Scale Discovery).
The 2-hour 1 mM ATP IRAK4 Biochemical assay was performed as described above, but with […] IRAK4 and 1 mM ATP.

T1 sequence (P08183 whole entry): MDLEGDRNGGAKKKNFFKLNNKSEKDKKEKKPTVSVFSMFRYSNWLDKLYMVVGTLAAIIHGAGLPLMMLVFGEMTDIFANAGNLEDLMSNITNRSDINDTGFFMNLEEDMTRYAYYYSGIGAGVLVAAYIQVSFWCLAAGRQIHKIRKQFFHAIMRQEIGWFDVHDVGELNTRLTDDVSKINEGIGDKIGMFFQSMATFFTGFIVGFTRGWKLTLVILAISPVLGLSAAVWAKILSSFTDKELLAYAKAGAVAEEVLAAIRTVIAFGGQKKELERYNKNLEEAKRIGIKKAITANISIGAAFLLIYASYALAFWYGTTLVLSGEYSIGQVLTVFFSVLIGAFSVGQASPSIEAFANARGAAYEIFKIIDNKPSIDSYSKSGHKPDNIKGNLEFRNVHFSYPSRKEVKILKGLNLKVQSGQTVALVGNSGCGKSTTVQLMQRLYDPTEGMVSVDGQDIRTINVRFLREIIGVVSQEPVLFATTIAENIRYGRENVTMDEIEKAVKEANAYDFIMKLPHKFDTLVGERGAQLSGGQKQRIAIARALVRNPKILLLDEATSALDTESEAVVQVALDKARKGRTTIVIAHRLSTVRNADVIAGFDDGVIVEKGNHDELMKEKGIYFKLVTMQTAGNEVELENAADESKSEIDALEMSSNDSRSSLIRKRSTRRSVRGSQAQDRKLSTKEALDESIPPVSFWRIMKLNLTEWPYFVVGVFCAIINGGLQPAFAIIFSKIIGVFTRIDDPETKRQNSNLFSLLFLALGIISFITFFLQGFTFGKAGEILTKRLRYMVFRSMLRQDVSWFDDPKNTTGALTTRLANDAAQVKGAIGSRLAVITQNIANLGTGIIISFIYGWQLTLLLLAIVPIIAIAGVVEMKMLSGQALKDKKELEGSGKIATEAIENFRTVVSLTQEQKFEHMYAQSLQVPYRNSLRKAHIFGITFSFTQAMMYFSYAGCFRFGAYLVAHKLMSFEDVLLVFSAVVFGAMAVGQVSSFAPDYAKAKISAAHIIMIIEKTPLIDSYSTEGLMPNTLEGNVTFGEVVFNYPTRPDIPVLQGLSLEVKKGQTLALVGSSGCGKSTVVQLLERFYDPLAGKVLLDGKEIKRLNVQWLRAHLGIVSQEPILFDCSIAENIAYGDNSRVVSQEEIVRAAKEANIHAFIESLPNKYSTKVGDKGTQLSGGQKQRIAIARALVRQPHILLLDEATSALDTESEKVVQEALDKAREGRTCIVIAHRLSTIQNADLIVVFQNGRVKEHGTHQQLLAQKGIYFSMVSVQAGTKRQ

efflux ratio at 120 min, 1 μM (MDR1 (P-gp))	IC50 (IRAK4)	SMILES
1.1	0.7 nM	CC(C)Oc1nc2nn([C@H]3CCCOC3)cc2cc1C(=O)Nc1cnn2cccnc12 (single isomer, unassigned) [Example 121]
0.6	0.3 nM	CC(C)Oc1cc2nn(C3CCOCC3)cc2cc1C(=O)Nc1cccc(C(F)F)n1.Cl [Example 25, N-(6-(difluoromethyl)pyridin-2-yl)-6-isopropoxy-2-(tetrahydro-2H-pyran-4-yl)-2H-indazole-5-carboxamide hydrochloride]
9.4	10.6 nM	CC(C)Oc1nc2nn(CC3CCOC3)cc2cc1C(=O)Nc1ccn(C)n1 (stereo not drawn) [Example 79, 6-Isopropoxy-N-(1-methyl-1H-pyrazol-3-yl)-2-((tetrahydrofuran-3-yl)methyl)-2H-pyrazolo[3,4-b]pyridine-5-carboxamide]
2.3	11.2 nM	CC(C)Oc1cc2nn(C3COC3)cc2cc1C(=O)Nc1cnn2cccnc12 [Example 38, 6-Isopropoxy-2-(oxetan-3-yl)-N-(pyrazolo[1,5-a]pyrimidin-3-yl)-2H-indazole-5-carboxamide]
1	0.3 nM	CC(C)Oc1nc2nn(C3CCOCC3)cc2cc1C(=O)Nc1cccc(C(F)F)n1 [Example 63, N-(6-(difluoromethyl)pyridin-2-yl)-6-isopropoxy-2-(tetrahydro-2H-pyran-4-yl)-2H-pyrazolo[3,4-b]pyridine-5-carboxamide]
1.6	4.8 nM	CC(C)Oc1cc2nn(C34COC(C)(C3)C4)cc2cc1C(=O)Nc1ccn(C)n1 [Example 92, 6-Isopropoxy-N-(1-methyl-1H-pyrazol-3-yl)-2-(1-methyl-2-oxabicyclo[2.1.1]hexan-4-yl)-2H-indazole-5-carboxamide]
2.5	124 nM	COc1cccc(NC(=O)c2cc(OC)c3nn(CCC(C)(C)OC)cc3c2)n1.Cl [Example 15, 7-Methoxy-2-(3-methoxy-3-methylbutyl)-N-(6-methoxypyridin-2-yl)-2H-indazole-5-carboxamide hydrochloride]
1.2	0.3 nM	CC(C)Oc1cc2nn([C@@H]3CCOC(C)(C)C3)cc2cc1C(=O)Nc1cccc(C(F)F)n1 (single isomer, unassigned) [Example 46]
1.5	2.2 nM	COCCCn1cc2cc(C(=O)Nc3cccc(C(F)(F)F)n3)c(OC(C)C)nc2n1.Cl [Example 60, 6-Isopropxy-2-(3-methoxypropyl)-N-(6-(trifluoromethyl)pyridin-2-yl)-2H-pyrazolo[3,4-b]pyridine-5-carboxamide hydrochloride]
1.9	13.6 nM	CC(C)Oc1nc2nn(CC3CCOC3)cc2cc1C(=O)Nc1ccccn1 (stereo not drawn) [Example 77, 6-Isopropoxy-N-(pyridin-2-yl)-2-((tetrahydrofuran-3-yl)methyl)-2H-pyrazolo[3,4-b]pyridine-5-carboxamide]
1.1	0.2 nM	CC(C)Oc1cc2nn(C34CCC(C)(C3)OC4)cc2cc1C(=O)Nc1cccc(C(F)F)n1 (stereo not drawn) [Example 97, N-(6-(difluoromethyl)pyridin-2-yl)-6-isopropoxy-2-(1-methyl-2-oxabicyclo[2.2.1]heptan-4-yl)-2H-indazole-5-carboxamide]
0.8	2.2 nM	CC(C)Oc1cc2nn([C@H]3CCOC3)cc2cc1C(=O)Nc1cccc(C(F)F)n1 (single isomer, unassigned) [Example 44]
5.3	2.1 nM	Cn1cccc(NC(=O)c2cc3cn(C[C@@H]4CCOC4)nc3nc2OC2CCC2)c1=O (single isomer, unassigned) [Example 113]
2.1	2.7 nM	CC(C)Oc1nc2nn(C[C@@H]3CCOC3)cc2cc1C(=O)Nc1ccn(C(F)F)n1 (single isomer, unassigned) [Example 111]
2.9	1.1 nM	O=C(Nc1cccc(C(F)F)n1)c1cc2cn(C3CCOCC3)nc2cc1OC1CCOC1 (stereo not drawn) [Example 75, N-(6-(difluoromethyl)pyridin-2-yl)-2-(tetrahydro-2H-pyran-4-yl)-6-((tetrahydrofuran-3-yl)oxy)-2H-indazole-5-carboxamide]
0.5	0.4 nM	CO[C@H]1C[C@H](n2cc3cc(C(=O)Nc4cccc(C(F)F)n4)c(OC(C)C)cc3n2)C1 [Example 74, N-(6-(difluoromethyl)pyridin-2-yl)-6-isopropoxy-2-((1R,3R)-3-methoxycyclobutyl)-2H-indazole-5-carboxamide]
4.8	0.9 nM	Cc1cnc2c(NC(=O)c3cc4cn(C[C@H]5CCOC5)nc4nc3OC(C)C)cnn2c1 (single isomer, unassigned) [Example 104]
0.6	1 nM	COc1cccc(NC(=O)c2cc3cn(C45COC(C)(C4)C5)nc3cc2OC(C)C)n1 [Example 89, 6-Isopropoxy-N-(6-methoxypyridin-2-yl)-2-(1-methyl-2-oxabicyclo[2.1.1]hexan-4-yl)-2H-indazole-5-carboxamide trifluoroacetae]
1.7	373 nM	COc1cc2nn(CC3CCOC3)cc2cc1C(=O)Nc1ccccn1.O=C(O)C(F)(F)F (stereo not drawn) [Example 2, 6-Methoxy-N-(pyridin-2-yl)-2-((tetrahydrofuran-3-yl)methyl)-2H-indazole-5-carboxamide trifluoroacetate]
0.4	1 nM	COCCC(C)n1cc2cc(C(=O)Nc3cccc(C(F)F)n3)c(OC(C)C)cc2n1.Cl (stereo not drawn) [Example 59, N-(6-(difluoromethyl)pyridin-2-yl)-6-isopropoxy-2-(4-methoxybutan-2-yl)-2H-indazole-5-carboxamide hydrochloride]
0.9	0.3 nM	CC(C)Oc1cc2nn(C34COC(C)(C3)C4)cc2cc1C(=O)Nc1cnn2cc(Cl)cnc12 [Example 95, N-(6-chloropyrazolo[1,5-a]pyrimidin-3-yl)-6-isopropoxy-2-(1-methyl-2-oxabicyclo[2.1.1]hexan-4-yl)-2H-indazole-5-carboxamide]

SMILES	efflux ratio at 120 min, 1 μM (MDR1 (P-gp))	IC50 (IRAK4)
CC12CC(n3cc4cc(C(=O)Nc5cccn(C(F)F)c5=O)c(OC5CCC5)cc4n3)(CO1)C2 [Example 84, 6-Cyclobutoxy-N-(1-(difluoromethyl)-2-oxo-1,2-dihydropyridin-3-yl)-2-(1-methyl-2-oxabicyclo[2.1.1]hexan-4-yl)-2H-indazole-5-carboxamide trifluoroacetate]	0.9	0.5 nM
Cc1cnc2c(NC(=O)c3cc4cn(C56COC(C)(C5)C6)nc4cc3OC3CCC3)cnn2c1 [Example 56, 6-Cyclobutoxy-2-(1-methyl-2-oxabicyclo[2.1.1]hexan-4-yl)-N-(6-methylpyrazolo[1,5-a]pyrimidin-3-yl)-2H-indazole-5-carboxamide Trifluoroacetate]	2	0.5 nM
CO[C@H]1C[C@H](Oc2cc3nn(C4CCOCC4)cc3cc2C(=O)Nc2cccc(C(F)F)n2)C1.Cl [Example 50, N-(6-(difluoromethyl)pyridin-2-yl)-6-((1R,3R)-3-methoxycyclobutoxy)-2-(tetrahydro-2H-pyran-4-yl)-2H-indazole-5-carboxamide Hydrochloride]	1.4	0.2 nM
